Results reported in patent US10053431B2, “Tetrahydro-benzodiazepinones” (priority 2013, dated 2018).
Structures can show the parent of a compound that is named as a salt. Where two headings read alike, the source gives them in different places.

Assays:
BIR3 domain of XIAP = BIR3 domain of XIAP (Homo sapiens (Human), UniProt P98170); assay: TR-FRET assay for BIR3 (inhibition of binding of XIAP BIR3 domain to SMAC-derived Peptide A)
BIR2 domain of XIAP = BIR2 domain of XIAP (Homo sapiens (Human), UniProt P98170, C202A/C213G); assay: TR-FRET assay for BIR2 (inhibition of binding of XIAP BIR2 domain to SMAC-derived Peptide A)
[1] = 6x His-tagged BIR3 domain (aa 241-356 of XIAP) 10 nM, Peptide A 20 nM, TR-FRET
[2] = 6x His-tagged BIR2 domain (aa 124-240 of XIAP) 10 nM, Peptide A 20 nM, TR-FRET, read-out: IC50 BIR2

Sequence of BIR3 domain of XIAP (P98170 241-356 with tags or gaps limits assumed): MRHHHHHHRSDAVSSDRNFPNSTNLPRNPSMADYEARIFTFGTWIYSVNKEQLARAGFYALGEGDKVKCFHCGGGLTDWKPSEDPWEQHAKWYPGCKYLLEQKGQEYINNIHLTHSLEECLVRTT
Sequence of BIR2 domain of XIAP (P98170 124-240 with tags or gaps C202A/C213G limits assumed): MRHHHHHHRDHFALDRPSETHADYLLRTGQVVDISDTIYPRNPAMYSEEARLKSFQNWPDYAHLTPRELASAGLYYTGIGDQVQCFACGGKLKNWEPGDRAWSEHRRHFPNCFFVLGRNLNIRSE

With `CC[C@H](NC)C(=O)NC1C(=O)N(Cc2c(OC)ccc3ccccc23)c2ccccc2N(CC23CC4CC(CC(C4)C2)C3)C1=O` (stereo partly drawn) [Example 113, (2S)-N-[5-(1-adamantylmethyl)-1-[(2-methoxynaphthalen-1-yl)methyl]-2,4-dioxo-1,5-benzodiazepin-3-yl]-2-(methylamino)butanamide] the IC50 (BIR3 domain of XIAP; [1]) was > 54800 nM and the IC50 (BIR2 domain of XIAP; [2]) was 324 nM.
For `CN[C@@H](C)C(=O)N[C@H]1CN(C(C)=O)c2cc(C#N)ccc2N(Cc2nn(-c3ccccc3C#N)c3ccccc23)C1=O` [Example 169, (S)-N-((S)-5-acetyl-7-cyano-1-((1-(2-cyanophenyl)-1H-indazol-3-yl)methyl)-2-oxo-2,3,4,5-tetrahydro-1H-benzo[b][1,4]diazepin-3-yl)-2-(methylamino)propanamide hydrochloride], the IC50 (BIR3 domain of XIAP; [1]) was > 54800 nM and the IC50 (BIR2 domain of XIAP; [2]) was 33.2 nM.
`CN[C@@H](C)C(=O)N[C@H]1CN(C(=O)Cc2cccnc2)c2ccccc2N(Cc2c(C)ccc3ccccc23)C1=O` [Example 96h] was tested, and the IC50 (BIR3 domain of XIAP; [1]) was 13600 nM and the IC50 (BIR2 domain of XIAP; [2]) was 23 nM.
`CN[C@@H](C)C(=O)N[C@H]1CN(C(=O)c2ccc(N)cc2)c2ccccc2N(Cc2c(OC)ccc3cc(C(=O)O)ccc23)C1=O` [Example 57, 5-(((S)-5-(4-aminobenzoyl)-3-((S)-2-(methylamino)propanamido)-2-oxo-2,3,4,5-tetrahydro-1H-benzo[b][1,4]diazepin-1-yl)methyl)-6-methoxy-2-naphthoic acid hydrochloride] gave an IC50 (BIR3 domain of XIAP; [1]) of 20800 nM and an IC50 (BIR2 domain of XIAP; [2]) of 7 nM.
For `CN[C@@H](C)C(=O)N[C@H]1CN2C(=O)CCCCNC(=O)c3ccc4c(c(OC)ccc4c3)CN(C1=O)c1ccccc12` [Example 54, Cyclic-5-[(S)-5-(5-amino-pentanoyl)-3-((S)-2-methylamino-propionylamino)-2-oxo-2,3,4,5-tetrahydro-benzo[b][1,4]diazepin-1-ylmethyl]-6-methoxy-naphthalene-2-carboxylic amide hydrochloride], the IC50 (BIR3 domain of XIAP; [1]) was 16000 nM and the IC50 (BIR2 domain of XIAP; [2]) was 18 nM.
`CN[C@@H](C)C(=O)N[C@H]1CN(S(=O)(=O)N(C)C)c2ccccc2N(Cc2c(C)ccc3ccccc23)C1=O` [Example 100, (S)—N—[(S)-5-Dimethylsulfamoyl-1-(2-methyl-naphthalen-1-ylmethyl)-2-oxo-2,3,4,5-tetrahydro-1H-benzo[b][1,4]diazepin-3-yl]-2-methylamino-propionamide hydrochloride] was tested, and the IC50 (BIR3 domain of XIAP; [1]) was > 54800 nM and the IC50 (BIR2 domain of XIAP; [2]) was 249 nM.
In the case of `CN[C@@H](C)C(=O)NC1C(=O)N(Cc2c(OC)ccc3cc(Br)ccc23)c2ccccc2N(c2ccccc2)C1=O` (stereo partly drawn) [Example 128, (2S)-N-(1-((6-bromo-2-methoxynaphthalen-1-yl)methyl)-2,4-dioxo-5-phenyl-2,3,4,5-tetrahydro-1H-benzo[b][1,4]diazepin-3-yl)-2-(methylamino)propanamide], the IC50 (BIR3 domain of XIAP; [1]) is reported as 44800 nM and the IC50 (BIR2 domain of XIAP; IC50 BIR2) is reported as 4.99 nM.
In the case of `CN[C@@H](C)C(=O)N[C@H]1CN(C(C)=O)c2cc(C#N)ccc2N(Cc2c(C3CC3)ccc3c(C#N)cccc23)C1=O` [Example 176, (S)-N-((S)-5-acetyl-7-cyano-1-((5-cyano-2-cyclopropylnaphthalen-1-yl)methyl)-2-oxo-2,3,4,5-tetrahydro-1H-benzo[b][1,4]diazepin-3-yl)-2-(methylamino)propanamide hydrochloride], the IC50 (BIR3 domain of XIAP; [1]) is reported as 25600 nM and the IC50 (BIR2 domain of XIAP; [2]) is reported as 38.2 nM.
With `CN[C@@H](C)C(=O)N[C@H]1CN(C(=O)c2ccncc2)c2cc(C#N)ccc2N(Cc2nn(-c3ccccc3C#N)c3ccccc23)C1=O` [Example 174, (S)-N-((S)-7-cyano-1-((1-(2-cyanophenyl)-1H-indazol-3-yl)methyl)-5-isonicotinoyl-2-oxo-2,3,4,5-tetrahydro-1H-benzo[b][1,4]diazepin-3-yl)-2-(methylamino)propanamide dihydrochloride] the IC50 (BIR3 domain of XIAP; [1]) was > 54800 nM and the IC50 (BIR2 domain of XIAP; [2]) was 22.4 nM.
Work on `CN[C@@H](C)C(=O)N[C@H]1CN(C(=O)c2ccc(C(C)=O)cc2)c2ccccc2N(CC(=O)Nc2cccc3ccccc23)C1=O` [Example 105, (2S)-N-[(3S)-1-(4-acetylbenzoyl)-5-[2-(naphthalen-1-ylamino)-2-oxoethyl]-4-oxo-2,3-dihydro-1,5-benzodiazepin-3-yl]-2-(methylamino)propanamide;2,2,2-trifluoroacetic acid] yielded an IC50 (BIR3 domain of XIAP; [1]) of 46100 nM and an IC50 (BIR2 domain of XIAP; [2]) of 503 nM.
`CN[C@@H](C)C(=O)N[C@H]1CN(C(=O)c2ccc(C(C)=O)cc2)c2cc(Cl)ccc2N(Cc2c(OC)ccc3c(Br)cccc23)C1=O` [Example 125, (S)-N-((S)-5-(4-acetylbenzoyl)-1-((5-bromo-2-methoxynaphthalen-1-yl)methyl)-7-chloro-2-oxo-2,3,4,5-tetrahydro-1H-benzo[b][1,4]diazepin-3-yl)-2-(methylamino)propanamide hydrochloride] was tested, and the IC50 (BIR3 domain of XIAP; [1]) was 25600 nM and the IC50 (BIR2 domain of XIAP; [2]) was 7.92 nM.
In the case of `CN[C@@H](C)C(=O)N[C@H]1CN(C(=O)CC(N)=O)c2ccccc2N(Cc2c(C)ccc3ccccc23)C1=O` [Example 11, (S)—N—[(S)-5-(2-Carbamoyl-acetyl)-1-(2-methyl-naphthalen-1-ylmethyl)-2-oxo-2,3,4,5-tetrahydro-1H-benzo[b][1,4]diazepin-3-yl]-2-methylamino-propionamide hydrochloride], the IC50 (BIR3 domain of XIAP; [1]) is reported as > 54800 nM and the IC50 (BIR2 domain of XIAP; [2]) is reported as 426 nM.
With `COc1ccc2c(CN3C(=O)[C@@H](NC(=O)[C@H](C)N)CN(C(=O)c4ccc(C(C)=O)cc4)c4ccccc43)cc(=O)oc2c1` [Example 69j] the IC50 (BIR3 domain of XIAP; [1]) was > 54800 nM and the IC50 (BIR2 domain of XIAP; [2]) was 213 nM.
In the case of `CCN[C@@H](C)C(=O)N[C@H]1CN(C(=O)c2ccc(C(C)=O)cc2)c2ccccc2N(Cc2c(OC)ccc3cc(Br)ccc23)C1=O` [Example 80, (S)—N—((S)-5-(4-Acetylbenzoyl)-1-((6-bromo-2-methoxynaphthalen-1-yl)methyl)-2-oxo-2,3,4,5-tetrahydro-1H-benzo[b][1,4]diazepin-3-yl)-2-(ethylamino)propanamide hydrochloride], the IC50 (BIR3 domain of XIAP) is reported as > 54800 nM and the IC50 (BIR2 domain of XIAP; [2]) is reported as 14 nM.
In the case of `CC(=O)c1ccc(C(=O)N2C[C@H](NC(=O)[C@H](C)N)C(=O)N(Cc3c(OC(F)F)ccc4ccccc34)c3ccccc32)cc1` [Example 69i], the IC50 (BIR3 domain of XIAP; [1]) is reported as 52000 nM and the IC50 (BIR2 domain of XIAP; [2]) is reported as 39 nM.
For `CN[C@@H](C)C(=O)N[C@H]1CN(C(=O)c2ccc(C(=O)OC)cc2)c2ccccc2N(Cc2c(C)ccc3ccccc23)C1=O` [Example 96a, 4-[(S)-3-((S)-2-Methylamino-propionylamino)-5-(2-methyl-naphthalen-1-ylmethyl)-4-oxo-2,3,4,5-tetrahydro-benzo[b][1,4]diazepine-1-carbonyl]-benzoic acid methyl ester hydrochloride], the IC50 (BIR3 domain of XIAP; [1]) was > 54800 nM and the IC50 (BIR2 domain of XIAP; [2]) was 99 nM.
For `CCN[C@@H](CC)C(=O)N[C@H]1CN(C(=O)CS(C)(=O)=O)c2ccccc2N(Cc2c(OC)ccc3c(Br)cccc23)C1=O` [Example 155, (S)-N-((S)-1-((5-bromo-2-methoxynaphthalen-1-yl)methyl)-5-(2-(methylsulfonyl)acetyl)-2-oxo-2,3,4,5-tetrahydro-1H-benzo[b][1,4]diazepin-3-yl)-2-(ethylamino)butanamide hydrochloride], the IC50 (BIR3 domain of XIAP; [1]) was > 54800 nM and the IC50 (BIR2 domain of XIAP; [2]) was 18.6 nM.
`CN[C@@H](C)C(=O)N[C@H]1CN(C(=O)c2ccc(F)cc2)c2cc(Cl)ccc2N(Cc2c(OC)ccc3cc(Br)ccc23)C1=O` [Example 130, (S)-N-((S)-1-((6-bromo-2-methoxynaphthalen-1-yl)methyl)-7-chloro-5-(4-fluorobenzoyl)-2-oxo-2,3,4,5-tetrahydro-1H-benzo[b][1,4]diazepin-3-yl)-2-(methylamino)propanamide hydrochloride] gave an IC50 (BIR3 domain of XIAP; [1]) of 16400 nM and an IC50 (BIR2 domain of XIAP; [2]) of 35.6 nM.
In the case of `CN[C@@H](C)C(=O)N[C@@H]1C(=O)N(CC(=O)Nc2ccccc2)c2ccccc2N(C(C)=O)[C@H]1C` [Example 191, (S)-N-((2S,3S)-1-acetyl-2-methyl-4-oxo-5-(2-oxo-2-(phenylamino)ethyl)-2,3,4,5-tetrahydro-1H-benzo[b][1,4]diazepin-3-yl)-2-(methylamino)propanamide hydrochloride], the IC50 (BIR3 domain of XIAP; [1]) is reported as > 54800 nM and the IC50 (BIR2 domain of XIAP; [2]) is reported as 434 nM.
`CN[C@@H](C)C(=O)N[C@H]1CN(C(=O)OC)c2ccccc2N(Cc2c(C)ccc3ccccc23)C1=O` [Example 20, ((S)-3-((S)-2-Methylamino-propionylamino)-5-(2-methyl-naphthalen-1-ylmethyl)-4-oxo-2,3,4,5-tetrahydro-benzo[b][1,4]diazepine-1-carboxylic acid methyl ester hydrochloride] was tested, and the IC50 (BIR3 domain of XIAP; [1]) was > 54800 nM and the IC50 (BIR2 domain of XIAP; [2]) was 588 nM.
For `CC(=O)c1ccc(C(=O)N2C[C@H](NC(=O)[C@H](C)N)C(=O)N(Cc3noc4ccccc34)c3ccccc32)cc1` [Example 69k], the IC50 (BIR3 domain of XIAP; [1]) was > 54800 nM and the IC50 (BIR2 domain of XIAP; [2]) was 27 nM.
`CN[C@@H](C)C(=O)N[C@H]1CN2C(=O)CNC(=O)c3ccc4c(c(OC)ccc4c3)CN(C1=O)c1ccccc12` [Example 108, Cyclic-5-[(S)-5-(3-Amino-acetyl)-3-((S)-2-methylamino-propionylamino)-2-oxo-2,3,4,5-tetrahydro-benzo[b][1,4]diazepin-1-ylmethyl]-6-methoxy-naphthalene-2-carboxylic amide hydrochloride] was tested, and the IC50 (BIR3 domain of XIAP; [1]) was > 54800 nM and the IC50 (BIR2 domain of XIAP; [2]) was 17.2 nM.
`CN[C@@H](C)C(=O)N[C@H]1CN(Cc2ccc(C#N)cc2)c2ccccc2N(Cc2c(OC)ccc3cc(Br)ccc23)C1=O` [Example 78, (S)—N—((S)-1-((6-Bromo-2-methoxynaphthalen-1-yl)methyl)-5-(4-cyanobenzyl)-2-oxo-2,3,4,5-tetrahydro-1H-benzo[b][1,4]diazepin-3-yl)-2-(methylamino)propanamide trifluoroacetate] showed an IC50 (BIR3 domain of XIAP; [1]) of 17100 nM and an IC50 (BIR2 domain of XIAP; [2]) of 30 nM.
Compound `CN[C@@H](C)C(=O)N[C@H]1CN(C(=O)c2ccc(F)cc2)c2cc(Cl)ccc2N(Cc2c(OC)ccc3c(Br)cccc23)C1=O` [Example 126, (S)-N-((S)-1-((5-bromo-2-methoxynaphthalen-1-yl)methyl)-7-chloro-5-(4-fluorobenzoyl)-2-oxo-2,3,4,5-tetrahydro-1H-benzo[b][1,4]diazepin-3-yl)-2-(methylamino)propanamide hydrochloride] has an IC50 (BIR3 domain of XIAP; [1]) of 21500 nM and an IC50 (BIR2 domain of XIAP; [2]) of 17.2 nM.
